Reference: patent US20060281771A1, “SYNERGISTIC MODULATION OF FLT3 KINASE USING AMINOQUINOLINE AND AMINOQUINAZOLINE KINASE MODULATORS” (priority 2005, published 2006)
pIC50: −log10 of the molar value.

Columns and labels:
MV4-11 cells = assay: Inhibition of MV4-11 cell proliferation (CellTiterGlo, 72 h); assay type: cell-based; conditions: Homo sapiens; 72 h growth inhibition
Outline: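 MV4-11 (FLT3-ITD) cells, 10,000/well in RPMI/10% FBS with 1 ng/ml GM-CSF, treated 72 h at 37 °C; some runs in 1:1 medium/human plasma. Growth read as ATP luminescence; 100% inhibition = Day 0 RLU, 0% = DMSO at Day 3. IC50 from sigmoidal variable-slope fit of triplicates.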

[1] = biological target: T1, isolated kinase domain of the human FLT3 receptor (a.a. 571-993) (Homo sapiens, UniProt P36888); assay: FLT3 fluorescence polarization kinase assay; assay type: biochemical
T1 construct: human FLT3 receptor (a.a. 571-993)
T1 sequence (P36888 571-993): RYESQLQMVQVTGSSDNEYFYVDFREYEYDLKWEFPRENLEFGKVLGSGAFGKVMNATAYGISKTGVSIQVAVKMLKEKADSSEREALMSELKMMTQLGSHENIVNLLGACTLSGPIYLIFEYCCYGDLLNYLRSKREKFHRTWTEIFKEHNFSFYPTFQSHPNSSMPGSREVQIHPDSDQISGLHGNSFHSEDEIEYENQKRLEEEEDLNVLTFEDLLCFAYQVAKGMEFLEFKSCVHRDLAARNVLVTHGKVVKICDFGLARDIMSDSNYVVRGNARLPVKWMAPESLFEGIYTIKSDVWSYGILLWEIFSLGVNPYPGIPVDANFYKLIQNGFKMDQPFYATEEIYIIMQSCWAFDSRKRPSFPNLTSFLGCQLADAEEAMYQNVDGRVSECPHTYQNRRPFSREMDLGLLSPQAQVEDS
Excerpt: The FLT3 FP assay utilizes the fluorescein-labeled phosphopeptide and the anti-phosphotyrosine antibody included in the Panvera Phospho-Tyrosine Kinase Kit (Green) supplied by Invitrogen. When FLT3 phosphorylates polyGlu4Tyr, the fluorescein-labeled phosphopeptide is displaced from the anti-phosphotyrosine antibody by the phosphorylated poly Glu4Tyr, thus decreasing the FP value. […] The kinase reaction is stopped with the addition of EDTA. The fluorescein-labeled phosphopeptide and the anti-phosphotyrosine antibody are added and incubated for 30 minutes at room temperature.
All data points are an average of triplicate samples. Inhibition and IC50 data analysis was done with GraphPad Prism using a non-linear regression fit with a multiparamater, sigmoidal dose-response (variable slope) equation.

Structure (SMILES)	pIC50 (MV4-11 cells)	pIC50 [1]
COc1cc2ncc(C#N)c(N3CCC(NC(=O)Nc4ccc(OC(C)C)cc4)C3)c2cc1OC (stereo not shown) [Compound 29, 1-[1-(3-Cyano-6,7-dimethoxy-quinolin-4-yl)-pyrrolidin-3-yl]-3-(4-isopropoxy-phenyl)-urea]	5.77	6.27
COc1cc2ncnc(N3CCC(NC(=O)Cc4ccc(C(C)C)cc4)CC3)c2cc1OC [Compound 21, N-[1-(6,7-Dimethoxy-quinazolin-4-yl)-piperidin-4-yl]-2-(4-isopropyl-phenyl)-acetamide]	7.11	6.82
COc1cc2ncnc(N3CCC(CC(=O)Nc4ccc(C(C)C)cc4)CC3)c2cc1OC [Compound 5, 2-[1-(6,7-Dimethoxy-quinazolin-4-yl)-piperidin-4-yl]-N-(4-isopropyl-phenyl)-acetamide]	8.15	7.92
COc1cc2ncnc(N3CCC(CNC(=O)Nc4ccc(C(C)C)cc4)CC3)c2cc1OC [Compound 18, 1-[1-(6,7-Dimethoxy-quinazolin-4-yl)-piperidin-4-ylmethyl]-3-(4-isopropyl-phenyl)-urea]	5.89	7.18
COc1cc2ncnc(N3CCC(NC(=O)Nc4ccc(OC(C)C)cc4)C3)c2cc1OC (stereo not shown) [Compound 8, 1-[1-(6,7-Dimethoxy-quinazolin-4-yl)-pyrrolidin-3-yl]-3-(4-isopropoxy-phenyl)-urea]	5.73	7.64
COc1cc2ncnc(N3CCC(OC(=O)Nc4ccc(OC(C)C)cc4)CC3)c2cc1OC [Compound 3, (4-Isopropoxy-phenyl)-carbamic acid 1-(6,7-dimethoxy-quinazolin-4-yl)-piperidin-4-yl ester]	6.33	8.10
COc1cc2ncc(C#N)c(N3CCC(OC(=O)Nc4ccc(C(C)C)cc4)C3)c2cc1OC (stereo not shown) [Compound 37, (4-Isopropyl-phenyl)-carbamic acid 1-(3-cyano-6,7-dimethoxy-quinolin-4-yl)-pyrrolidin-3-yl ester]	5.82	5.67
COc1cc2ncnc(N3CCC(OC(=O)Nc4ccc(OC5CCC5)nc4)C3)c2cc1OC (stereo not shown) [Compound 12, (6-Cyclobutoxy-pyridin-3-yl)-carbamic acid 1-(6,7-dimethoxy-quinazolin-4-yl)-pyrrolidin-3-yl ester]	7.19	7.46
COc1cc2ncc(C#N)c(N3CCC(OC(=O)Nc4ccc(OC(C)C)cc4)C3)c2cc1OC (stereo not shown) [Compound 32, (4-Isopropoxy-phenyl)-carbamic acid 1-(3-cyano-6,7-dimethoxy-quinolin-4-yl)-pyrrolidin-3-yl ester]	5.85	6.06
COc1cc2ncc(C#N)c(N3CCC(NC(=O)Nc4ccc(C(C)C)cc4)C3)c2cc1OC (stereo not shown) [Compound 26, 1-[1-(3-Cyano-6,7-dimethoxy-quinolin-4-yl)-pyrrolidin-3-yl]-3-(4-isopropyl-phenyl)-urea]	5.72	6.36
COc1cc2ncnc(N3CCCC(NC(=O)Nc4ccc(C(C)C)cc4)C3)c2cc1OC (stereo not shown) [Compound 28, 1-[1-(6,7-Dimethoxy-quinazolin-4-yl)-piperidin-3-yl]-3-(4-isopropyl-phenyl)-urea]	5.82	6.29
COc1cc2ncnc(N3CCC(NC(=O)Cc4ccc(C(C)C)cc4)C3)c2cc1OC (stereo not shown) [Compound 35, N-[1-(6,7-Dimethoxy-quinazolin-4-yl)-pyrrolidin-3-yl]-2-(4-isopropyl-phenyl)-acetamide]	5.72	5.89
COc1cc2ncnc(N3CCCCC3COC(=O)Nc3ccc(C(C)C)cc3)c2cc1OC (stereo not shown) [Compound 33, (4-Isopropyl-phenyl)-carbamic acid 1-(6,7-dimethoxy-quinazolin-4-yl)-piperidin-2-ylmethyl ester]	6.46	6.00
COc1cc2ncnc(N3CCCC3COC(=O)Nc3ccc(C(C)C)cc3)c2cc1OC (stereo not shown) [Compound 9]	6.71	7.60
COc1cc2ncnc(N3CCC(C(=O)Nc4ccc(OC(C)C)cc4)CC3)c2cc1OC [Compound 23, 1-(6,7-Dimethoxy-quinazolin-4-yl)-piperidine-4-carboxylic acid (4-isopropoxy-phenyl)-amide]	5.70	6.73
COc1cc2ncnc(N3CCC(N(C)C(=O)Nc4ccc(OC(C)C)cc4)C3)c2cc1OC (stereo not shown) [Compound 36, 1-[1-(6,7-Dimethoxy-quinazolin-4-yl)-pyrrolidin-3-yl]-3-(4-isopropoxy-phenyl)-1-methyl-urea]	5.50	5.77

More lines, now with the values ahead:

pIC50 (MV4-11 cells)	pIC50 [1]	Structure (SMILES)
5.86	7.17	COc1cc2ncnc(N3CCC(N(C)C(=O)Nc4ccc(C(C)C)cc4)C3)c2cc1OC (stereo not shown) [Compound 19, 1-[1-(6,7-Dimethoxy-quinazolin-4-yl)-pyrrolidin-3-yl]-3-(4-isopropyl-phenyl)-1-methyl-urea]
6.91	7.20	CCN(CC)CC#Cc1ccc2ncnc(N3CCC(OC(=O)Nc4ccc(C(C)C)cc4)C3)c2c1 (stereo not shown) [Compound 17, (4-Isopropyl-phenyl)-3-carbamic acid 1-[6-(3-diethylamino-prop-1-ynyl)-quinazolin-4-yl]-pyrrolidin-3-yl ester]
5.77	6.17	COc1cc2ncnc(N3CCCC(OC(=O)Nc4ccc(C(C)C)cc4)C3)c2cc1OC (stereo not shown) [Compound 31, (4-Isopropyl-phenyl)-carbamic acid 1-[1-(6,7-dimethoxy-quinazolin-4-yl)-piperidin-3-yl]ester]
6.07	7.43	COc1cc2ncnc(N3CCC(C(=O)Nc4ccc(C(C)C)cc4)CC3)c2cc1OC [Compound 13, 1-(6,7-Dimethoxy-quinazolin-4-yl)-piperidine-4-carboxylic acid (4-isopropyl-phenyl)-amide]
6.04	7.80	COc1cc2ncnc(N3CCC(NC(=O)Nc4ccc(C(C)C)cc4)C3)c2cc1OC (stereo not shown) [Compound 7, 1-[1-(6,7-Dimethoxy-quinazolin-4-yl)-pyrrolidin-3-yl]-3-(4-isopropyl-phenyl)-urea]
6.87	7.43	CC(C)c1ccc(NC(=O)OC2CCN(c3ncnc4ccc(C#CCO)cc34)C2)cc1 (stereo not shown) [Compound 14, (4-Isopropyl-phenyl)-carbamic acid 1-[6-(3-hydroxy-prop-1-ynyl)-quinazolin-4-yl]-pyrrolidin-3-yl ester]
8.10	7.85	COc1cc2ncnc(N3CCC(CC(=O)Nc4ccc(C(C)C)cc4)C3)c2cc1OC (stereo not shown) [Compound 6, 2-[11-(6,7-Dimethoxy-quinazolin-4-yl)-pyrrolidin-3-yl]-N-(4-isopropyl-phenyl)-acetamide]
6.74	8.22	COc1cc2ncnc(N3CCC(OC(=O)Nc4ccc(C(C)C)cc4)CC3)c2cc1OC [Compound 1, (4-Isopropyl-phenyl)-carbamic acid 1-(6,7-dimethoxy-quinazolin-4-yl)-piperidin-4-yl ester]
7.07	7.96	COc1cc2ncnc(N3CCCC(COC(=O)Nc4ccc(C(C)C)cc4)C3)c2cc1OC (stereo not shown) [Compound 4]
6.56	7.35	CC(C)c1ccc(NC(=O)NC2CCN(c3ncnc4ccccc34)C2)cc1 (stereo not shown) [Compound 16, 1-(4-Isopropyl-phenyl)-3-(1-quinazolin-4-yl-pyrrolidin-3-yl)urea]
6.61	8.15	COc1cc2ncnc(N3CCC(OC(=O)Nc4ccc(C(C)C)cc4)C3)c2cc1OC (stereo not shown) [Compound 2, (4-Isopropyl-phenyl)-carbamic acid 1-(6,7-dimethoxy-quinazolin-4-yl)-pyrrolidin-3-yl ester]
6.58	7.02	CC(C)c1ccc(NC(=O)OC2CCN(c3ncnc4ccc(I)cc34)C2)cc1 (stereo not shown) [Compound 20, (4-Isopropyl-phenyl)-carbamic acid 1-(6-iodo-quinazolin-4-yl)-pyrrolidin-3-yl ester]
6.06	7.38	COc1cc2ncnc(N3CCC(OC(=O)Nc4ccc(OC(C)C)cc4)C3)c2cc1OC (stereo not shown) [Compound 15, (4-Isopropoxy-phenyl)-carbamic acid 1-(6,7-dimethoxy-quinazolin-4-yl)-pyrrolidin-3-yl ester]
